From patent US8063104B2, “Guanidine derivatives as inhibitors of DDAH” (UCL Business PLC, priority 2004, dated 2011) come the findings set out here.

The test system of one series is eNOS. The series is described as follows: eNOS assay ([14C]arginine conversion). To be noted: eNOS activity. It is filed as biochemical. How it is done:
Compounds to be tested were added to NOS assay buffer (HEPES 50 mM pH 7.2, FAD 5 μM, FMN 5 μM, BH4 10 μM, NADPH 1 mM, DTT 0.5 mM, CaCl2 1 mM, MgCl2 1 mM, calmodulin 50 nM, [^14C] arginine 100 μM) in a final volume of 100 μl and the reaction was initiated by addition of eNOS (eNOS 3.3. U/reaction, Alexis Biochemicals). Reactions were incubated for 1 h at 37° C. and the reaction was terminated by the addition of Dowex pH 5.5 (0.85 ml) to each tube. Tubes were vortexed and microfuged <12000 g, 5 min. 100 μl of the Dowex supernatant was added to 5 ml scintillation cocktail and was counted in a scintillation counter (Hewlett Packard). The compounds were tested at 1 mM and 0.1 mM concentrations. Activity is expressed as % of control where control contained no inhibitor, n=4. The DDAH inhibitors of the present invention tested had no significant effect on eNOS activity.

The next series concerns RAW cells. In words: Cell viability assay (MTT) in RAW cells.
Series [1] concerns rat aortic rings. In words: Endotoxin-induced hyporeactivity to vasoconstrictors in rat aortic rings. It is filed as cell-based. To be noted: endotoxin 0.3 μg/ml, compound 100 μM and 200 μM. As for the experimental part:
Incubation of rat aortic rings with endotoxin (0.3 μg/ml) led to the development of hyporeactivity to vasoconstrictors.

The nature of series [2]: In vivo study: serum dimethylarginine levels after i.v. bolus. Details: species or system Male Wistar rats. To be noted: 4 hours after 60 mg/kg i.v. bolus, control 1.81 ± 0.23. As for the experimental part: Male Wistar rats (250-300 g; Charles River, Margate, Kent, UK) were anaesthetised using Isoflurane. The jugular vein was cannulated. Animals were injected intravenously with a bolus dose of inhibitor (60 mg/kg) or saline. Anaesthesia was maintained for 4 hours at the end of which blood was obtained via cardiac puncture for the determination of serum dimethylarginine levels. [All animals received care in compliance with The British Home Office Regulations and Principles of Laboratory Animal Care. (Project licenses PPL/5344, PPL/4824, PPL 70/5580)]
SDMA is not a substrate for DDAH and the levels of SDMA would be expected to be the same of the treated and the control animals, and this was the case. Since there is a great deal of variability of the “normal” ADMA and SDMA level, it is useful to measure the ratio of ADMA and SDMA in each animal to provide a reliable indicator of the relative changes of these to substances.

In a further series the target is T1, iNOS (Mus musculus, UniProt P29477).
T1 construct: endogenous in cells; host or cells: RAW cells stimulated with LPS/IFN and TNF
The series is described as follows: iNOS activity Greiss assay in stimulated RAW cells. To be noted: Griess NOx, RAW cells stimulated 24 h with LPS/IFN and TNF, compound 0.5 mM, 550 nm; control 0.367 ± 0.021. It is filed as cell-based. As for the experimental part: RAW cells were stimulated for 24 h with LPS/IFN and TNF, in the presence of the DDAH inhibitor compounds (0.5 mM). Levels of NOx secreted into the media by the cells were determined by Griess assay: Greiss reagent [1:1 sulfanilamide ([…]) in ortho-phosphoric acid (50%) and N-(1-napthyl)ethylenediamine dihydrochloride (1%)] was added as 100 μl volume to 100 μl cell culture media and the plate was read at 550 nm and analysed in relation to sodium nitrite and nitrate standards.

Series [3] relates to rat aortic rings. The series is described as follows: NOx production from endotoxin-treated rat aortic rings in static culture. To be noted: endotoxin 10 μg/ml, compound 500 μM. It is filed as cell-based. How it is done: FIG. 1 is a graph showing the nitrate and nitrite (NOx) production from isolated rat aortic rings in static culture in the presence of either media alone (untreated); media plus 10 μg/ml LPS (LPS) and media plus 10 μg/ml LPS and 500 μM SR257 or SR291. n≧6; *p<0.0001 One Way ANOVA plus Bonferroni post hoc correction;
Effects of two compounds SR 291 [N^G-(2-methoxyethyl)-L-arginine methyl ester] and SR 257 [N^G-(2-methoxyethyl)-L-arginine]) have been tested in a series of models of endotoxin-induced vascular dysfunction. Treatment of rat aortic vascular rings in static culture with endotoxin (10 μg/ml) led to an increase in generation of nitric oxide (as measured by nitrite and nitrate). This increase in NO was prevented by treatment with 500 μM SR257 or SR291.

The target in another series is T2, DDAH (Rattus norvegicus, UniProt O08557).
T2 construct: Rat kidney was homogenized in PBS; from tissue; host or cells: rat kidney homogenate, high-speed supernatant
T2 sequence (O08557 2-285 limits assumed): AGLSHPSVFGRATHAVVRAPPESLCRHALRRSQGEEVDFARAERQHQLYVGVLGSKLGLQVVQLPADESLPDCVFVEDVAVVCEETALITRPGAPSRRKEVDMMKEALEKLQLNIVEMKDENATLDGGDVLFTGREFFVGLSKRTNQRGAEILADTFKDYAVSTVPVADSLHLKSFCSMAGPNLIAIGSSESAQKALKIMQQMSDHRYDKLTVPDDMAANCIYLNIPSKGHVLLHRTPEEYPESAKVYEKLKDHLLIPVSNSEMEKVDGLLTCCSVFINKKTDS
The series is described as follows: DDAH activity assay (rat kidney lysate, [14C]L-NMMA to [14C]citrulline). To be noted: 1 mM compound, [14C]L-NMMA 1 μmol/L, 1 h 37° C. It is filed as biochemical. As for the experimental part:
Rat kidney was homogenized in PBS containing PMSF 1 mM, leupeptin 5 μg/ml, pepstatin 5 μg/ml, chymostatin 5 μg/ml, and the lysate was centrifuged (4000 rpm. 20 min then supernatant further centrifuged for 40000 rpm, 30 min, 4° C.). The supernatants were analyzed for DDAH activity; [^14[…]) was added to the cell lysates (final volume 100 μl) and incubated for 1 h at 37° C. Dowex resin (0.5 ml) at neutral pH was immediately added to samples to terminate the reaction and bind unmetabolized L-NMMA. [^14C]Citrulline formation was determined by scintillation counting (Hewlett Packard).

Like-named read-outs stand apart in the source and are kept apart here.

Turning to `COCCN=C(N)NCCCC(N)C(=O)O` [Example 21, N^G-(2-methoxyethyl)-L-arginine], the “% of control ± sd” value is 96.84 ± 30.49 [2] % of control in the series with eNOS (0.1 mM compound) and 84.81 ± 22.74 [4] % of control in the series on eNOS (1 mM compound). Also, the “OD units drug ± sd” value with RAW cells (MTT, RAW cells, compound 0.5 mM, 24 h, OD550 nm, control 2.54 ± 0.26) is on record as 2.15 ± 0.13 OD units; on iNOS it was 0.326 ± 0.014 OD units. Besides, in the series with rat aortic rings [1], the “endotoxin-induced hyporeactivity to vasoconstrictors” value was “reversed dose dependently”. For the same molecule, in series [2], the “ADMA:SDMA ± sd” value stood at 3.50 ± 0.48. In addition, in the series on rat aortic rings [3], the “endotoxin-induced increase in NO (nitrite and nitrate)” value is “prevented”. On DDAH, this molecule yielded an inhibition at 1000 µM of 100%.
`COCCN=C(N)NCC[C@H](N)C(=O)OCc1ccccc1` [Example 26, (S)-2-Amino-4-(N′-(2-methoxyethyl)guanidino)butanoic acid benzyl ester]: the “% of control ± sd” value in the series on eNOS (0.1 mM compound) is 101.2 ± 38.07 [2] % of control; in the series with eNOS (1 mM compound), 82.88 ± 10.08 [4] % of control. Moreover, the entries for the “OD units drug ± sd” value with RAW cells and on iNOS were 2.40 ± 0.17 OD units and 0.327 ± 0.026 OD units, respectively. Also, the inhibition at 1000 µM against DDAH was 96%.
